Test results as given in patent publication US9132108B2, “Pharmaceutical composition for ameliorating and/or preventing leptin resistance, and use thereof” (HIROSHIMA UNIVERSITY, priority 2009, dated 2015).

Legend:
[1] = test system: circulating leptin levels; experiment: Circulating leptin levels of leptin-resistant mice (Example 9); assay type: in vivo, mouse; conditions: 3 weeks after flurbiprofen administration, 3 mg/kg per day orally; control 106.51±3.7122; P<0.05
Method: Similarly with Example 8, 4 weeks-old male mice (C57BL/6 Cr Slc) had been given high-fat diet for 6 months so that leptin resistance would be induced in the mice. Thereafter, the mice were divided into two groups (each consisting of 8 mice), and the mice of individual groups were given the following diets for 3 weeks. • Control group (Cont): normal diet (10 kcal % fat) only • Flurbiprofen-administered group (Ful): normal diet+flurbiprofen Flurbiprofen (F8514, produced by SIGMA) was diluted with drinking water so that the administration amount of flurbiprofen would be 3 mg/kg per day, and was orally administered to the mice in the form of drinking water. […] FIG. 15 is a graph showing circulating leptin levels (ng/ml) of the mice of the control group and the mice of the flurbiprofen-administered group which had been given normal diet for 3 weeks. Values in the graph of FIG. 15 are averages of circulating leptin levels (ng/ml) of mice of each group (± their standard deviations) (n=8 with respect to each group). Further, statistic analysis was carried out using t-test.

[2] = test system: blood glucose level; experiment: Glucose tolerance test after 8 weeks of diet (Example 4); assay type: in vivo, mouse; conditions: 10 mg/kg per day orally
Source text: In view of the above, Example 4 discussed whether it is possible to evaluate induction of leptin resistance by measuring a change in blood glucose level by the glucose tolerance test as a reference index. At the same time, Example 4 discussed whether administration of flurbiprofen can prevent induction of leptin resistance, by measuring a change in blood glucose level by the glucose tolerance test as a reference index. Specifically, 4 weeks-old mice (C57BL/6 Cr Slc) were divided into four groups each consisting of 14-16 mice. Mice of individual groups were given diets as follows for 8 weeks similarly with Example 3. • Group 1: Normal diet (10 kcal % fat) only • Group 2: High-fat diet (60 kcal % fat) only • Group 3: Normal diet+flurbiprofen • Group 4: High-fat diet+flurbiprofen Flurbiprofen (F8514, produced by SIGMA) was diluted with drinking water so that the administration amount of flurbiprofen would be 10 mg/kg per day, and was orally administered to the mice in the form of drinking water. […] In Example 4, mice were fasted overnight for 17 hours, and fasted blood glucose level (pre) was measured by Freestyle freedom (NIPRO CORPORATION, blood glucose self-monitoring system) at 10:00 a.m. […] Blood glucose level was measured by Freestyle freedom (NIPRO CORPORATION, blood glucose self-monitoring system) 30 minutes, 1 hour, and 2 hours after the administration. […]

[3] = test system: GRP78 and CHOP; conditions: described in Patent Literature 1; cited from earlier work
[4] = test system: blood glucose level; experiment: Glucose tolerance test in leptin-resistant mice (Example 11); assay type: in vivo, mouse; conditions: 3 hours after glucose 2 g/kg i.p.; 3 mg/kg per day orally, 3 weeks; vs control group; P<0.07 in t-test
Method: Similarly with Example 8, 4 weeks-old male mice (C57BL/6 Cr Slc) had been given high-fat diet for 6 months so that leptin resistance would be induced in the mice. Thereafter, the mice were divided into two groups (each consisting of 8 mice), and the mice of individual groups were given the following diets for 3 weeks. • Control group: normal diet (10 kcal % fat) only • Flurbiprofen-administered group: normal diet+flurbiprofen Flurbiprofen (F8514, produced by SIGMA) was diluted with drinking water so that the administration amount of flurbiprofen would be 3 mg/kg per day, and was orally administered to the mice in the form of drinking water. The mice to which flurbiprofen had been administered for 3 weeks were subjected to a glucose tolerance test. In Example 11, mice were fasted overnight for 17 hours from between 17:00 and 18:00 of the previous day, and fasted blood glucose level (pre) was measured by Freestyle freedom (NIPRO CORPORATION, blood glucose self-monitoring system) at 10:00 to 11:00. Thereafter, glucose was intraperitoneally (i.p.) administered so that the administration amount of glucose would be 2 g/kg. Blood glucose level was measured using Freestyle freedom (NIPRO CORPORATION, blood glucose self-monitoring system) 30 minutes, 1 hour, 2 hours, 3 hours, and 4 hours after glucose administration. FIG. 17 is a graph showing the result of the glucose tolerance test. […]

[5] = test system: mice given high-fat diet; experiment: High-fat diet-induced accumulation of visceral fat (Example 5); assay type: in vivo, mouse; conditions: Group 4 (high-fat diet+flurbiprofen) vs Group 2; 10 mg/kg per day orally, 8 weeks; significance level <5%
Method: 4 weeks-old mice (C57BL/6 Cr Slc) were divided into four groups each consisting of 7-8 mice. Mice of individual groups were given diets as follows for 8 weeks similarly with Example 4. • Group 1: Normal diet (10 kcal % fat) only • Group 2: High-fat diet (60 kcal % fat) only • Group 3: Normal diet+flurbiprofen • Group 4: High-fat diet+flurbiprofen Flurbiprofen (F8514, produced by SIGMA) was diluted with drinking water so that the administration amount of flurbiprofen would be 10 mg/kg per day, and was orally administered to the mice in the form of drinking water. The mice raised for 8 weeks with high-fat diet or normal diet were cut open along a median line, and the amount of fatty tissue (visceral fat) was measured. Visceral fat was extracted from the abdomen of a mouse, and wet weight of the fat was measured. […] FIG. 9 is a graph showing the amounts of fat contents of mice of individual groups to which flurbiprofen had been administered for 8 weeks. Values in the graph of FIG. 9 are averages of the amounts (g) of fat of mice of each group (± their standard deviations) (n=7-8 with respect to each group). Further, statistic analysis was carried out using t-test.

Structure (SMILES): C[C@@H](C(=O)O)c1ccc(-c2ccccc2)c(F)c1 [flurbiprofen]
- circulating leptin level [1]: 87.105 ± 5.4415 ng/mL
- blood glucose level in glucose tolerance test ([2]; Group 3 (normal diet+flurbiprofen) vs Group 1 (normal diet)): no significant difference in blood glucose level
- blood glucose level in glucose tolerance test ([2]; Group 4 (high-fat diet+flurbiprofen), 1 hour after glucose 2 g/kg i.p., significant difference vs Group 2): rapidly decreased blood glucose level
- expression of GRP78 and CHOP induced by endoplasmic reticulum stress [3]: prevented
- blood glucose level in glucose tolerance test [4]: reduced blood glucose level
- amount of fat content (visceral fat, wet weight) [5]: significant decrease in the amount of fat content
